{
  "source": "patent US20080175888A1",
  "about": "“Combination Therapy Comprising Actinidia and Steroids and Uses Thereof” (priority 2005, published 2008)",
  "test_system": "production of IL-13 and IFN-γ by OVA-stimulated mouse splenocytes",
  "assay": "Cytokine production in OVA-stimulated splenocyte cultures, ELISA (Example 3)",
  "format": "cell-based",
  "settings": "3 days exposure in vitro, FIG. 5A/5B",
  "protocol": "The purpose of this study was to assess the ability of A. arguta extracts that originate from plant parts other than the fruit, or from alternative preparations of the fruit (i.e., other than the extracts described in U.S. Patent Publication No. 2004/0037909, supra), to modulate cytokine production (IL-13 and IFNγ) in splenocyte cultures derived from ovalbumin-sensitized mice, using ELISA analysis. The following samples (prepared as described above) were tested: water extracts of the stem, root, and bark of A. arguta, prepared as described in Example 1; “boiled” fresh fruit preparations; the fruit juice concentrate prepared as described in Example 1; FD001 (large scale equivalent of PG102T) prepared as described in Example 1; FD001 powder prepared as described in Example 1 (used for clinical trials described below); a room temperature water extract of the dried A. arguta fruit; the EtOAc extract prepared as described in Example 1; and aqueous remainder, also described in Example 1. In addition, the activity of three known immunosuppressive compounds, cyclosporin, dexamethasone, and quercetin were evaluated as controls.\nPreparation of the splenocytes was performed in a manner identical to that described above for Example 2. […]\nThe cytokine levels in the culture supernatants from all treatment and control wells were determined by ELISA assay. […]",
  "data": [
    {"smiles": "O=c1c(O)c(-c2ccc(O)c(O)c2)oc2cc(O)cc(O)c12", "note": "[quercetin]", "values": [
      {"measurement": "concentration of potent activity (suppression of IL-13 and IFN-γ)", "result": "1 to 25", "unit": "µM"}
    ]}
  ]
}
